# Experimental data published in US4065356A, “Production of antibiotic FR-02A (efrotomycin) by streptomyces lactamdurans” (priority 1977, dated 1977).
# Entries after “also recorded” stand apart in the source; their conditions may differ.
# How the values were obtained:
# species of Pasteurella = experiment: in vitro activity; type: cell-based
# [1] = test system: Bordetella bronchiseptica; experiment: systemic infections produced by Bordetella bronchiseptica in mice; type: in vivo; conditions: orally
# Streptococcusagalactiae = experiment: in vitro activity; type: cell-based
# [2] = test system: Streptococcus faecalis 753; experiment: Antibiotic Spectrum Profile, agar diffusion test; type: cell-based; conditions: Enterococcus faecalis, 1 mg./ml., read-out: Diameters of Inhibition Zones
# [3] = test system: Brucella bronchiseptica 965; experiment: microbe, parasite or virus in culture; type: cell-based; conditions: Bordetella bronchiseptica, 965, read-out: Diameters of Inhibition Zones
# [4] = test system: Xanthomonas vesicatoria 815; experiment: Antibiotic Spectrum Profile, agar diffusion test; type: cell-based; conditions: 1 mg./ml., read-out: Diameters of Inhibition Zones
# E. coli (MB 1418) = experiment: in vitro activity; type: cell-based
# [5] = test system: Bacillus subtilis (MB 964); experiment: in vitro activity; type: cell-based
# [6] = test system: Salmonealla gallinarum (MB 1287); experiment: in vitro activity; type: cell-based
# Bordetella = experiment: in vitro activity; type: cell-based
# S. aureus 3032 = experiment: Antibiotic Spectrum Profile, agar diffusion test; type: cell-based; conditions: Staphylococcus aureus, 1 mg./ml., read-out: Diameters of Inhibition Zones
# [7] = test system: Pseudomonas stutzeri (MB 2765); experiment: in vitro activity; type: cell-based
# Bacillus subtilis 964 = experiment: Antibiotic Spectrum Profile, agar diffusion test; type: cell-based; conditions: 1 mg./ml., read-out: Diameters of Inhibition Zones
# M. gallisepticum = experiment: in vitro activity; type: cell-based
# E. coli 60 = experiment: Antibiotic Spectrum Profile, agar diffusion test; type: cell-based; conditions: Escherichia coli, 1 mg./ml., read-out: Diameters of Inhibition Zones
# PPLO [8] = experiment: PPLO in cattle; type: in vivo
# gram-negative bacteria = experiment: antibacterial activity; type: cell-based
# Erwinia auroseptica 1159 = experiment: Antibiotic Spectrum Profile, agar diffusion test; type: cell-based; conditions: 1 mg./ml., read-out: Diameters of Inhibition Zones
# [9] = test system: Klebsiella pneumoniae 1264; experiment: Antibiotic Spectrum Profile, agar diffusion test; type: cell-based; conditions: 1 mg./ml., read-out: Diameters of Inhibition Zones
# [10] = growth promotion in animals; type: in vivo, animals such as chickens, sheep and cattle; conditions: feed additive
# [11] = test system: Klebsiella pneumoniae (MB 1264); experiment: in vitro activity; type: cell-based
# Proteus vulgaris [12] = experiment: in vitro activity; type: cell-based
# Proteus vulgaris 1012 = experiment: Antibiotic Spectrum Profile, agar diffusion test; type: cell-based; conditions: 1 mg./ml., read-out: Diameters of Inhibition Zones
# Aerobacter aerogenes 835 = experiment: Antibiotic Spectrum Profile, agar diffusion test; type: cell-based; conditions: Klebsiella aerogenes, 1 mg./ml., read-out: Diameters of Inhibition Zones
# Vibrio percolans = experiment: agar-diffusion bioassay using Vibrio percolans; type: cell-based; conditions: Comamonas terrigena; concentration of 200 μ/ml.; LH-20 product
# Method: A 0.5 ml. solution of methanol containing 106 mg. of FR-02A obtained from Example 1 above is charged to a 75 ml. bed (1.25 cm. dia. × 56 cm. ht.) of Sephadex LH-20 gel in methanol (Pharmacia Fine Chemicals, Inc., Piscataway, N.J.). The column is developed with methanol. […] Fractions are bioassayed at a 1-10 dilution with 1/2 dia. paper discs on agar-diffusion assay plates seeded with Vibrio percolans. Zones of inhibition are obtained corresponding to the third mass peak (KD = 0.3) detected. The fractions corresponding to the third mass peak are combined and evaporated to yield 43 mg. of FR-02A.
# The product when assayed in the above agar-diffusion bioassay using Vibrio percolans gives a 16 mm. zone of inhibition at a concentration of 200 μ/ml. The U.V. absorption in pH 7.0 phosphate buffer was: […]
# coccidia [13] = experiment: activity against coccidia; type: cell-based
# PPLO [14] = experiment: PPLO in chickens; type: in vivo
# Strep. pyogenes = experiment: in vivo test in mice, Strep. pyogenes infection; conditions: infection IP, therapy IP, at time of infection and 6 hours later
# Method: (§1) *Values in the table are expressed in mg./mouse. Both infections and
# (§2) therapeutic doses of FR-02A were administered intraperitoneally. FR-02A
# (§3) was administered at time of infection and again 6 hours later.
# Strep. faecium 2820 = experiment: Antibiotic Spectrum Profile, agar diffusion test; type: cell-based; conditions: Enterococcus faecium, 1 mg./ml., read-out: Diameters of Inhibition Zones
# Streptococcus pyogenes = experiment: in vitro activity; type: cell-based
# [15] = test system: Corynebacterium pseudodiphtheriticum 261; experiment: Antibiotic Spectrum Profile, agar diffusion test; type: cell-based; conditions: 1 mg./ml., read-out: Diameters of Inhibition Zones
# [16] = test system: Salmonella gallinarum 1287; experiment: Antibiotic Spectrum Profile, agar diffusion test; type: cell-based; conditions: Salmonella enterica, 1 mg./ml., read-out: Diameters of Inhibition Zones
# coccidia [17] = experiment: chicken coccidiosis; type: in vivo; conditions: most prevalent types
# Streptococcus faecalis = experiment: in vitro activity; type: cell-based
# Proteus vulgaris 838 = experiment: Antibiotic Spectrum Profile, agar diffusion test; type: cell-based; conditions: 1 mg./ml., read-out: Diameters of Inhibition Zones
# gram-positive bacteria = experiment: antibacterial activity; type: cell-based
# Vibrio percolans 1272 = experiment: Antibiotic Spectrum Profile, agar diffusion test; type: cell-based; conditions: Comamonas terrigena, 1 mg./ml., read-out: Diameters of Inhibition Zones
# Proteus vulgaris [18] = experiment: in vivo test in mice, Proteus vulgaris infection; conditions: infection IP, therapy IP, at time of infection and 6 hours later
# Method: as §1, §2, §3
# [19] = test system: Pseudomonas aeruginosa (MB 3210); experiment: in vitro activity; type: cell-based
# Escherichia coli 1418 = experiment: Antibiotic Spectrum Profile, agar diffusion test; type: cell-based; conditions: 1 mg./ml., read-out: Diameters of Inhibition Zones
# [20] = test system: Staphylococcus aureus (MB 703); experiment: in vitro activity; type: cell-based
# coccidia [21] = experiment: mouse coccidiosis; conditions: in vivo
compound,measurement,setting,value
"CC=CC=CC1OC(O)(C(CC)C(=O)NCC=CC=C(C)C(OC)C(C)C2OC(C=CC=CC=C(C)C(=O)c3c(O)ccn(C)c3=O)C(O)C2O)C(O)C(OC2OC(C)C(OC3OC(C)C(OC)C(O)C3OC)C(OC)C2O)C1(C)C (stereo not drawn) [FR-02A, efrotomycin]",in vitro activity,species of Pasteurella,effective
same,efficacy in systemic infections produced by Bordetella bronchiseptica,[1],orally effective
same,in vitro activity,Streptococcusagalactiae,effective
same,zone of inhibition at 1000 µg/mL,[2],11 mm
same,zone of inhibition at 1000 µg/mL,[3],18 mm
same,zone of inhibition at 1000 µg/mL,[4],13 mm
same,activity,E. coli (MB 1418),Activity was also found
same,activity,[5],Activity was also found
same,activity,[6],Activity was also found
same,in vitro activity,Bordetella,effective
same,zone of inhibition at 1000 µg/mL,S. aureus 3032,12 mm
same,activity,[7],Activity was also found
same,zone of inhibition at 1000 µg/mL,Bacillus subtilis 964,19 mm
same,in vitro activity,M. gallisepticum,effective
same,zone of inhibition at 1000 µg/mL,E. coli 60,10 mm
same,efficacy against PPLO,PPLO [8],effective
same,activity against gram-negative bacteria,gram-negative bacteria,shows activity; also recorded: effective
same,zone of inhibition at 1000 µg/mL,Erwinia auroseptica 1159,12 mm
same,zone of inhibition at 1000 µg/mL,[9],16 mm
same,growth promotion,[10],shortens the time required for bringing animals up to marketable weight
same,activity,[11],Activity was also found
same,in vitro activity,Proteus vulgaris [12],effective
same,zone of inhibition at 1000 µg/mL,Proteus vulgaris 1012,10 mm
same,zone of inhibition at 1000 µg/mL,Aerobacter aerogenes 835,13 mm
same,zone of inhibition at 200 µg/mL,Vibrio percolans,16 mm
same,activity against coccidia,coccidia [13],shows activity
same,efficacy against PPLO,PPLO [14],effective
same,ED50,Strep. pyogenes,0.247 mg./mouse
same,zone of inhibition at 1000 µg/mL,Strep. faecium 2820,20 mm
same,in vitro activity,Streptococcus pyogenes,effective
same,zone of inhibition at 1000 µg/mL,[15],27 mm
same,zone of inhibition at 1000 µg/mL,[16],13 mm
same,efficacy against chicken coccidiosis,coccidia [17],effective
same,in vitro activity,Streptococcus faecalis,effective
same,zone of inhibition at 1000 µg/mL,Proteus vulgaris 838,18 mm
same,activity against gram-positive bacteria,gram-positive bacteria,shows activity; also recorded: effective
same,zone of inhibition at 1000 µg/mL,Vibrio percolans 1272,21 mm
same,ED50,Proteus vulgaris [18],1.73 mg./mouse
same,activity,[19],Activity was also found
same,zone of inhibition at 1000 µg/mL,Escherichia coli 1418,15 mm
same,activity,[20],Activity was also found
same,efficacy against mouse coccidiosis,coccidia [21],effective
